{
  "source": "paper PMC6750642",
  "about": "“Direct Measurement of Amorphous Solubility” (Analytical Chemistry, 2019)",
  "key": {"[1]": {"assay": "Image-based single particle analysis (SPA) solubility measurement of amorphous and crystalline samples", "type": "physicochemical", "conditions": "for DS (degree of supersaturation, amorphous vs crystalline solubility), SPA method: Milli-Q ultrapure water, type 1", "procedure": "The constant flow continuously displaces drug molecules from the surface of the dissolving particle. […] (Figure 1). The solubilities of all five crystalline and amorphous samples were measured in triplicate in Milli-Q water. […] The obtained solubility values, therefore, were the average of three independent measurements, where at least ten particles per single measurement were analyzed. Additionally, amorphous IND was also measured in HCl buffer pH 2.0 in the presence of 0.1% (w/v) polyvinylpyrolidone (PVP). The additional measurement using PVP was performed in order to assess the need for a crystallization inhibitor in the SPA experiments. The solubilities of the amorphous and crystalline samples were measured in Milli-Q water and USP buffers as soon as the solvent came in contact with particles."}, "[2]": {"assay": "Theoretical estimation of DS by the Hoffman method from DSC and DVS data", "type": "physicochemical", "procedure": "Samples of 5–10 mg were tightly packed into standard aluminum crucibles (40 μL) with pierced lids. The samples were equilibrated at 25 °C for 3 min and then linearly heated with a heating rate of 10 °C/min to 20 °C above their respective melting points. Measurements of both amorphous and crystalline samples were recorded in triplicate, and thermal events were analyzed using the STARe software (Mettler-Toledo, Greifensee, Switzerland). Temperatures and melting enthalpies were used to estimate the free energy difference between the amorphous and crystalline forms.\nThe water sorption isotherms of the five amorphous drug samples were determined using the method previously described by Murdande et al.[10] A VTI-SA+ Vapor Sorption Analyzer (TA Instruments, New Castle, DE, USA) was used to measure the moisture sorption profiles of the amorphous samples. Approximately 10 mg of amorphous sample was placed into a glass holder. To reduce the possibility of sample crystallization during the measurement, no drying step was used. The DVS measurements were performed at 25 °C from 0 to 95% relative humidity (in 10% steps up to 90%). The equilibrium criterion was 0.001% weight change in 5 min with a maximum step time of 150 min. The instrument is calibrated once a month.\nAccording to Hoffman, the difference in Gibbs free energy (ΔG) between the crystalline and the amorphous form can be estimated using eq 4.[15]Hm, Tm, and T are the melting enthalpy of the crystalline form, the melting temperature of the crystalline form, and the experimental temperature measured in Kelvin, respectively. Using the ΔG estimation, the maximum DS due to amorphization was predicted according to Hancock and Parks[9] and corrected for the impact of water on the amorphous solute as proposed by Murdande et al. through eq 5.[10]R and exp(−I(a2)) are the gas constant and a correction factor obtained from DVS measurements, as shown by Murdande et al.[10]"}, "[3]": {"conditions": "cited from earlier work"}, "[4]": {"conditions": "cited from earlier work", "remark": "listed apart in the source"}, "[5]": {"assay": "Dynamic water sorption (DVS) of amorphous samples", "type": "physicochemical", "conditions": "above RH 80%, 25 °C"}},
  "note": "Like-named read-outs stand apart in the source and are kept apart here. Marks after values point to notes of the source that are not given here.",
  "data": [
    {"compound": "Cc1ccc(-c2cc(C(F)(F)F)nn2-c2ccc(S(N)(=O)=O)cc2)cc1", "note": "[CEL, Celecoxib]", "values": [
      {"measurement": "DS (degree of supersaturation, amorphous vs crystalline solubility), SPA method", "setting": "[1]", "result": 18.9},
      {"measurement": "DS, theoretical estimation (Hoffman method with correction for the effect of water on the amorphous solute)", "setting": "[2]", "result": 21.7},
      {"measurement": "DS, literature, dissolution in water", "setting": "[3]; distilled water", "result": "3.1 ^c^, ^h"},
      {"measurement": "DS range reported in the literature", "setting": "[4]; temperature range of 34–75 °C", "result": "7–21"}
    ]},
    {"compound": "OCCN(CCO)c1nc(N2CCCCC2)c2nc(N(CCO)CCO)nc(N3CCCCC3)c2n1", "note": "[DIP, Dipyridamole]", "values": [
      {"measurement": "DS (degree of supersaturation, amorphous vs crystalline solubility), SPA method", "setting": "[1]", "result": 15.3},
      {"measurement": "DS, theoretical estimation (Hoffman method with correction for the effect of water on the amorphous solute)", "setting": "[2]", "result": 6.6},
      {"measurement": "DS, theoretical estimation based solely on ΔG, without the correction for the adsorbed water", "setting": "[2]", "result": 15.2},
      {"measurement": "sample mass loss in DVS experiment (crystallization, water expelled)", "setting": "[5]", "result": 0.39, "unit": "%"},
      {"measurement": "DS, literature, theoretical estimation", "setting": "[4]", "result": "10 ^k"}
    ]},
    {"compound": "COC1=CC(=O)C[C@@H](C)[C@]12Oc1c(Cl)c(OC)cc(OC)c1C2=O", "note": "[GRI, griseofulvin]", "values": [
      {"measurement": "DS (degree of supersaturation, amorphous vs crystalline solubility), SPA method", "setting": "[1]", "result": 29.8},
      {"measurement": "DS, theoretical estimation (Hoffman method with correction for the effect of water on the amorphous solute)", "setting": "[2]", "result": 34.6},
      {"measurement": "DS, literature, dissolution in water", "setting": "[3]; deionized water", "result": "1.4 ^d^, ^i"},
      {"measurement": "DS, literature, theoretical estimation", "setting": "[4]; approach by Almeida et al.", "result": 30.9},
      {"measurement": "DS, literature, theoretical estimation", "setting": "[4]", "result": 29.1}
    ]},
    {"compound": "C#C[C@]1(O)CC[C@H]2[C@@H]3CCC4=Cc5oncc5C[C@]4(C)[C@H]3CC[C@@]21C", "note": "[DAN, Danazol]", "values": [
      {"measurement": "DS, theoretical estimation (Hoffman method with correction for the effect of water on the amorphous solute)", "setting": "[2]", "result": 23.9},
      {"measurement": "DS, literature, dissolution in water", "setting": "[3]; deionized water", "result": "3.0 ^d^, ^i"},
      {"measurement": "DS, literature, theoretical estimation", "setting": "[4]", "result": "26.5 ^i"}
    ]},
    {"compound": "COc1ccc2c(c1)c(CC(=O)O)c(C)n2C(=O)c1ccc(Cl)cc1", "note": "[IND, indomethacin]", "values": [
      {"measurement": "DS (degree of supersaturation, amorphous vs crystalline solubility), SPA method", "setting": "[1]", "result": 20.4},
      {"measurement": "effect of PVP in the dissolution medium on the solubility of the amorphous form, SPA method", "setting": "[1]; USP HCl buffer pH 2.0 with vs without PVP 0.1% (w/v)", "result": "did not affect"},
      {"measurement": "DS, theoretical estimation (Hoffman method with correction for the effect of water on the amorphous solute)", "setting": "[2]", "result": 18.7},
      {"measurement": "DS, literature, dissolution in water", "setting": "[3]; deionized water", "result": "4.9 ^d^, ^i"},
      {"measurement": "DS, literature, theoretical estimation", "setting": "[4]", "result": "20.8 ^i"}
    ]}
  ]
}
